Results: patent publication US9133208B2, “Radiolabelled rotenone derivatives and their use in SPECT imaging” (priority 2011, dated 2015)

Key:
[1] = Ex vivo biodistribution in Sprague-Dawley rats; settings: 2 hr p.i.
Description: An amount of 0.5 mL of a 2.4 mCi/mL mixture of compounds 6-9 (Mixture A: composition comprising isomeric mixture of 12% 6 and 7 diastereomers; 88% 8 and 9 diastereomers) in 7% ethanol was diluted with 0.58 mL of 10 mM sodium acetate, pH 6.5 and 0.023 mL of 95% ethanol, to produce a 1.1 mL of a 1.1 mCi/mL solution having a value of pH of about 5. An amount of 0.8 mL of this solution (0.9 mCi) was injected through the tail veins of 14 Sprague-Dawley rats. Six of the rats were used to assess biodistribution of the mixture of compounds 6-9 after two hours, and the remaining eight rats were used to determine the biodistribution of the compounds after 24 hours. Selected organs were collected and weighed and the activity was measured for each organ with a gamma well counter using the detection range of 138-207 keV, and the measured values of activity were decay-corrected to the time of injection. The values of percentage of injected dose per gram of tissue (% ID/g) were calculated by taking the ratio of the activity in the organ over the total activity injected per gram of tissue. Uptake in the heart of the rat was confirmed by the SPECT/CT images shown in FIG. 5, in which the heart is well defined.
A biodistribution study was conducted according to the method described above using purified fractions of the mixture of isomers 6-9 (Mixture A).
FIGS. 3B-3E show HPLC chromatograms of the four separate fractions used in the biodistribution study: Fraction 1: fraction comprising 100% of Component A*; Fraction 2: fraction comprising an isomeric mixture comprising 15.2% Component A* and 84.8% Component B*; Fraction 3: fraction comprising an isomeric mixture comprising 4.4% Component A*, 4.4% Component B* and 91.2% Component C*; Fraction 4: fraction comprising an isomeric mixture comprising 1.5% Component A*, 0.8% Component B* and 97.7% Component D*.

pig heart = assay: Uptake of radiotracers as a function of myocardial blood flow (MBF) in pig heart; format: in vivo; settings: for myocardial flow rate at which uptake begins to level off (roll off): two hours after injection, stress and induced ischemic conditions
Description: The tissue and blood samples were weighed and measured using a gamma well counter to determine the amount of gamma radiation emitted by the I-123 radiolabel of the radio-iodinated tracers of the present invention. The measured gamma radiation in each segment represents the combined amount of gamma radiation emitted by the tracers in that segment during the resting and stressed states of the heart. The counts and the weights of the samples were also used to calculate the percentage of injected dose per gram of tissue (% ID/g). After the I-123 in the blood and tissue samples had completely decayed, both the tissue and the blood were dried in an oven at 70° C. for 48-72 h, the samples were sent for neutron activation and the gamma radiation emitted by each of the resulting radioactive [^198Au]gold-containing microspheres and [^153Sm]samarium-containing microspheres, which were embedded in the samples, were measured. Polar maps of the resting and stressed states of the isolated heart of the pig were generated using MATLAB™ to assemble the gamma measurement results in all the transected segments from the bottom (apex) to the top (AV groove) of the pig heart.
The myocardial blood flow (MBF) that was present in the tissue samples during the resting and stressed states was determined from the total amount of gamma radiation emitted from each of the radioactive gold and samarium microspheres, respectively, in the isolated transections of the heart of the pig and the dried blood sample according to the following equation: MBF=[(Reference blood sample withdrawal rate (4 mL/min)/(Weight of myocardial sample (g)]×[Isotope count (myocardial sample)/Isotope counts (reference blood sample)].
FIG. 8 illustrates a plot of uptake (percent of injected dose per gram of tissue; % ID/g) of the radiotracer compounds of the present invention as a function of the myocardial blood flow in the pig heart under stress and induced ischemic conditions as determined using the marked microspheres.

rabbit hearts = assay: Myocardial distribution in isolated retrograde perfused (Langendorff) rabbit heart; design: species or system New Zealand White rabbits; settings: for fractional appearance rates at later time points / initial peak fractional venous appearance rate: flow rate 1.7 ml/min/g LV, FIG. 9, qualitative
Description: Preparation of retrograde perfusion (Langendorff) was performed as previously described (R. C. Marshall, P. Powers-Risius, B. W. Reutter, S. E. Taylor, H. F. VanBrocklin, R. H. Huesman, T. F. Budinger J Nucl Med. 2001; 42:272-281, which is incorporated by reference herein) using hearts from 1.5-2.5 kg male New Zealand White rabbits (Charles River, Wilmington Mass.). Following an injection of heparin (5 mg/kg) and median sternotomy, hearts were excised keeping the ascending aorta and aortic branches, lungs and thymus intact. The hearts were immediately placed into an ice-cold bath containing modified Tyrode's solution ([…], 1 mM MgCl2, 28 mM NaHCO3, 0.44 mM NaH2PO4, 2.5 mM CaCl2, 6 mM KCl, 5 mM glucose, […] with 22 g/L BSA and aerated with 95% O2/5% CO2) and thymus and fatty tissue were quickly removed. The hearts were then suspended on an aortic cannula and perfused with pre-warmed modified Tyrode's buffer through a water jacketed, temperature regulated Langendorff perfusion system (Radnotti, Calif., USA) at a constant flow rate. Total time for suspension onto the Langendorff apparatus was typically 60 seconds or less. Following suspension on the aortic cannula, the remaining lung, trachea and extraneous tissues were removed.
Fluid from Thebesian circulation was drained via a polyethylene catheterized apical drain. A fluid filled latex ballon connected to a pressure transducer (Radnotti) was inserted into the left ventrical via the left atrium and mitral valve. Following excision of the right atrium, a pacing electrode (Radnotti) was placed at the level of the atria to allow controlled pacing of the heart.
Following final preparation, the left ventricular balloon was inflated to achieve an end-diastolic pressure of approximately 8-10 mmHg with a constant systolic pressure held between 60-80 mm Hg. The heart was continually perfused with modified Tyrode's solution warmed to 38° C. and was held in an enclosed chamber to maintain humidity and temperature. The heart was paced with a Grass SD9 stimulator (Harvard Apparatus, Montreal QC) at 180 beats per minute with a stimulus of 4 V delivered over 4 ms. Perfusion and ventricular pressures were monitored throughout the experiment using a BioPac data acquisition system (BioPac, Montreal QC).
Radioactivity from all samples were counted in a gamma counter and data was analyzed using Matlab software. […] Maximal uptake values were determined for ^99mTc-sestamibi and Mixture A at varying flow rates (0.35-3.1 ml/min/g LV wet weight).

dog heart [2] = assay: Literature tracer uptake vs microsphere flow in dog with critical LAD stenosis (Broisat et al., Glover et al.); format: in vivo
Description: The slope of a non-linear fitted line to the ^123I-ZIROT data shown in FIG. 3 of Broisat et al. is −3.59.

dog heart [3] = settings: representative dog, critical LAD stenosis, intravenous adenosine; cited from earlier work
[4] = compared with FIG. 9; cited from earlier work
[5] = Literature isolated perfused heart data of Marshall et al. 2001
Description: A slower myocardial exit is beneficial for clinical diagnostic imaging since this permits the physician to gather images over a longer period of time thereby increasing image resolution, sensitivity and quality.
Marshall et al. report slopes of 0.29 and 0.78 for the fitted linear lines to the maximal uptake data for ^99mTc-sestamibi and ^125I-rotenone, respectively. The slopes of the fitted lines to the data for ^99mTc-sestamibi and the isomers of Mixture A shown in FIG. 10 of the present application are 0.33 and 0.86, respectively. The value of the ratio of the slopes of the fitted lines for ^125I-rotenone and ^99mTc-sestamibi from Marshall et al. is 2.69, while the value of the ratio of the slopes of the fitted lines for Mixture A and ^99mTc-sestamibi shown in FIG. 10 is 2.61. […] A linear uptake of tracer with increasing flow is especially desired in a clinical setting since in patients, deficiencies in myocardial perfusion are almost exclusively detected at higher blood flow rates, i.e. during a stress test by comparison of low (ischemic) and high flow (normal) areas.

rat cardiomyocytes = assay: Cell uptake (internalization) assay with labeled rotenone derivatives; format: cell-based; settings: 0.5 μCi tracer, time points up to 5 min
Description: An internalization assay was used to test the in vitro function of candidate perfusion tracers. In this assay, cultures of rat cardiomyocytes were plated at a density of 3-5×10^5 cells/mL into 24-well tissue culture plates. The cardiomyocytes were then incubated with 0.5 μCi of radiolabeled tracer ^99mTc-tetrofosmin (Myoview™) or [^123I] iodinated rotenone (mixture containing isomers 6-9) mixed in cell culture medium (DMEM) and incubated for up to five minutes. At different time points, the total supernatant was collected, the cells were washed twice with PBS and then exposed and lysed with 1 M NaOH for 15 min. Samples were counted in a gamma well counter and the cellular protein was determined for the lysed samples. The data was analyzed to represent the total “internalized” fraction expressed as cpm per total protein (FIG. 4).

[6] = flow rates 0.35-3.1 ml/min/g LV wet weight

In the case of COc1cc2c(cc1OC)[C@@H]1C(=O)c3ccc4c(c3O[C@@H]1CO2)C[C@H](C(C)([123I])CO)O4 (single isomer, unassigned) [B*], the Heart [1] was “slightly lower”, the Heart/Liver ratio [1] was “relatively higher” and the Intestine [1] was “significantly higher than others”. The Liver [1] was “much lower”.
For COc1cc2c(cc1OC)[C@@H]1C(=O)c3ccc4c(c3O[C@@H]1CO2)C[C@H](C(C)([123I])CO)O4 (single isomer, unassigned) [Fraction 1], the Blood [1] was 0.191 ± 0.040 % ID/g, the Brain [1] was 0.063 ± 0.013 % ID/g and the Femur [1] was 0.239 ± 0.083 % ID/g. For the same compound, the Heart [1] was 1.617 ± 0.335 % ID/g, the Heart/Blood ratio [1] was 8.46 ± 0.51 and the Heart/Liver ratio [1] was 1.20 ± 0.35. The Heart/Lung ratio [1] was 4.54 ± 0.59, the Intestine [1] was 0.787 ± 0.186 % ID/g and the Kidney [1] was 0.634 ± 0.099 % ID/g. For the same compound, the Liver [1] was 1.363 ± 0.101 % ID/g, the Lung [1] was 0.357 ± 0.059 % ID/g and the Muscle [1] was 0.369 ± 0.117 % ID/g. It also gave a Spleen [1] of 0.177 ± 0.031 % ID/g, a Stomach [1] of 1.628 ± 0.837 % ID/g and a Testis [1] of 0.128 ± 0.017 % ID/g. It also gave a Thyroid [1] of 0.826 ± 0.191 % ID/g and a Urine [1] of 0.528 ± 0.134 % ID/g.
For [C-]#[N+]CC(C)(C)OC.[C-]#[N+]CC(C)(C)OC.[C-]#[N+]CC(C)(C)OC.[C-]#[N+]CC(C)(C)OC.[C-]#[N+]CC(C)(C)OC.[C-]#[N+]CC(C)(C)OC.[Tc] [^99mTc-sestamibi], the “slope of the non-linear fitted line, uptake (% ID/g) vs MBF (FIG. 8)” value (pig heart; pig hearts) was −1.21, the “myocardial flow rate at which uptake begins to level off (roll off)” value (pig heart) was 1.5 mL/min/g and the “fractional appearance rates at later time points” value (rabbit hearts) was “higher fractional appearance rates”. For the same compound, the “initial peak fractional venous appearance rate” value (rabbit hearts) was “lower fractional venous appearance rates”, the “intercept of linear regression, maximum net uptake vs flow” value (rabbit hearts; [6]) was 0.14 and the “slope of linear regression, maximum net uptake vs flow (FIG. 10)” value (rabbit hearts; [6]) was 0.33. The “standardized slope (Glover et al. slope divided by 100)” value (dog heart [2]; representative dog, critical LAD stenosis, intravenous adenosine) was −1.43 and the “slope of non-linear fitted line, activity (% normal) vs microsphere flow (FIG. 4 of Glover et al.)” value (dog heart [3]) was −143.
In the case of COc1cc2c(cc1OC)C1C(=O)c3ccc4c(c3OC1CO2)CC(/C(C)=C\[123I])O4 (stereo not shown) [^123I-ZIROT, 7-(Z)-[^123I]iodorotenone], the “ratio of slope (Broisat et al.) to standardized ^99mTc-Sestamibi slope (Glover et al.)” value (dog heart [2]; dog literature data) is given as 2.5 and the “slope of non-linear fitted line, uptake vs microsphere flow (FIG. 3 of Broisat et al.)” value (dog heart [3]) is given as −3.59.
In the case of COc1cc2c(cc1OC)C1C(=O)c3ccc4c(c3OC1CO2)CC(/C(C)=C\[125I])O4 (stereo not shown) [^125I-rotenone, 7′-Z-[^125I]iodorotenone], the “venous effluent rate at the later portions of the curve (FIG. 1 of Marshall et al.)” value [4] is given as “higher venous effluent rate relative to the isomers of Mixture A” and the “ratio of the slopes of the fitted lines vs ^99mTc-sestamibi (Marshall et al.)” value [5] is given as 2.69.
With [201Tl] [^201Tl, ^201Thallium] the “fractional appearance rates at later time points” value (rabbit hearts) was “higher fractional appearance rates” and the “initial peak fractional venous appearance rate” value (rabbit hearts) was “lower fractional venous appearance rates”.
For “Technetium (^99mTc) tetrofosmin [^99mTc-tetrofosmin]”, the “myocardial flow rate at which uptake begins to level off (roll off)” value (pig heart) was 2 mL/min/g and the “cellular internalization over time (cpm per total protein)” value (rat cardiomyocytes) was “evident at 15 s but a gradual increase was seen up to 5 min”.
